We go through nine molecules from ChEMBL document CHEMBL2074019, “Functional characterization of human organic anion transporting polypeptide B (OATP-B) in comparison with liver-specific OATP-C” (Pharm Res, 2001).

Holding throughout (assay type): functional, cell-based
Data set [1] concerns the target T1, Solute carrier organic anion transporter family member 1B1 (Homo sapiens, UniProt Q9Y6L6).
T1 sequence (Q9Y6L6 whole entry): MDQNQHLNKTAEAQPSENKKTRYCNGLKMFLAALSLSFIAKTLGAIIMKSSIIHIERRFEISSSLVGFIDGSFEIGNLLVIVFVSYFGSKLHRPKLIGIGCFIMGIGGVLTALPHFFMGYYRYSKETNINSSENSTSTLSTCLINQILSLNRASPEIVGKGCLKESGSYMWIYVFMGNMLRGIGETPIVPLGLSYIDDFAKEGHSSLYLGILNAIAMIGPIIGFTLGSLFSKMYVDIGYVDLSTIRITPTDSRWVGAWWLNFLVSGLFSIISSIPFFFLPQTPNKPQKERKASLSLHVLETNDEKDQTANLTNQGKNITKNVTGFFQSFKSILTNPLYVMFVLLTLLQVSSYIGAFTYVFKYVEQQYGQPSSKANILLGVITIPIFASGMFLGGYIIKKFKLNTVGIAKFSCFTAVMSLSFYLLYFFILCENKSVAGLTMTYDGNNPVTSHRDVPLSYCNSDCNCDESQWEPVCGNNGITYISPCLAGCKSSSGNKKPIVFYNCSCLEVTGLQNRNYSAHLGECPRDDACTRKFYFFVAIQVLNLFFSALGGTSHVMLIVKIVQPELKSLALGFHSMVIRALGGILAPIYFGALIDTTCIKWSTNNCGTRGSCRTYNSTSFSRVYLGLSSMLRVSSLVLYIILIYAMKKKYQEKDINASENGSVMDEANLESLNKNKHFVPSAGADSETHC
In words: TP_TRANSPORTER: inhibition of E1S uptake (E1S: 0.04 uM, Estrone-3-glucuronide: 100 uM) in OATP-C-expressing HEK293 cells. Particulars: hek293, 100 µM.

The target of data set [2] is T1, Solute carrier organic anion transporter family member 1B1. The data set can be described thus: TP_TRANSPORTER: inhibition of E1S uptake (E1S: 0.04 uM, Estradiol-3-sulfate: 100 uM) in OATP-C-expressing HEK293 cells. Conditions: hek293, 100 µM.
Data set [3] has as its target T2, Solute carrier organic anion transporter family member 2B1 (Homo sapiens, UniProt O94956).
T2 sequence (O94956 whole entry): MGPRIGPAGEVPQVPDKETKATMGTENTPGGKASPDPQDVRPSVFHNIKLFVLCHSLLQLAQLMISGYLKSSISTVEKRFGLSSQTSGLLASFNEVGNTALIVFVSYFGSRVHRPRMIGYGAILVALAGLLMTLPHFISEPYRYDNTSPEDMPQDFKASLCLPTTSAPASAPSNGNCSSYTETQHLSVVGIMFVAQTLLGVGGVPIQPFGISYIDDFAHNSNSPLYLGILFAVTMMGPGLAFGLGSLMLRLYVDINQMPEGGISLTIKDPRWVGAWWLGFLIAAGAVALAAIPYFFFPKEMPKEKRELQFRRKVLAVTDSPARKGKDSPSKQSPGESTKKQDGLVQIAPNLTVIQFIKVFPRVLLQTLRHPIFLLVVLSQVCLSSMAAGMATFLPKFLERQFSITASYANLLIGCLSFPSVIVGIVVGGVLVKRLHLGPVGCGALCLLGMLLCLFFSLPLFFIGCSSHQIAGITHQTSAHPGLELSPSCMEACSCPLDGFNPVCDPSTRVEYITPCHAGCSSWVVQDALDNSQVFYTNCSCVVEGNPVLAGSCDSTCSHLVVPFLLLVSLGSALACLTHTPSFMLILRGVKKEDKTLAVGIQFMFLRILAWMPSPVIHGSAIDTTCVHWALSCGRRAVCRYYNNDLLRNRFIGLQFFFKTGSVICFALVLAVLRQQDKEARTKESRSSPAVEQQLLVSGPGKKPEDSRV
The data set can be described thus: TP_TRANSPORTER: inhibition of E1S uptake (E1S: 0.04 uM, Estradiol-3-sulfate: 100 uM) in OATP-B-expressing HEK293 cells. Conditions: hek293, 100 µM.

The target in data set [4] is T1, Solute carrier organic anion transporter family member 1B1. In words: TP_TRANSPORTER: inhibition of E1S uptake (E1S: 0.04 uM, E217betaG: 100 uM) in OATP-C-expressing HEK293 cells. Conditions: hek293, 100 µM.
Data set [5] has the same target. In words: TP_TRANSPORTER: inhibition of E217betaG uptake in OATP-C-expressing HEK293 cells.
For data set [6] the target is unchanged. In words: TP_TRANSPORTER: inhibition of E1S uptake (E1S: 0.04 uM, E2 3SO4 17betaG: 100 uM) in OATP-C-expressing HEK293 cells. Particulars: hek293, 100 µM.
Data set [7] has as its target T2, Solute carrier organic anion transporter family member 2B1. In words: TP_TRANSPORTER: inhibition of E1S uptake (E1S: 0.04 uM, beta-Estradiol: 100 uM) in OATP-B-expressing HEK293 cells. Particulars: hek293, 100 µM.
Data set [8] has as its target T1, Solute carrier organic anion transporter family member 1B1. The data set can be described thus: TP_TRANSPORTER: inhibition of E1S uptake (E1S: 0.04 uM, beta-Estradiol: 100 uM) in OATP-C-expressing HEK293 cells. Conditions: hek293, 100 µM.
For data set [9] the target is unchanged. In words: TP_TRANSPORTER: inhibition of E1S uptake (E1S: 0.04 uM, #Estrone: 100 uM) in OATP-C-expressing HEK293 cells. Conditions: hek293, 100 µM.
Data set [10] addresses T2, Solute carrier organic anion transporter family member 2B1. In words: TP_TRANSPORTER: inhibition of E1S uptake (E1S: 0.04 uM, #Estrone: 100 uM) in OATP-B-expressing HEK293 cells. Conditions: hek293, 100 µM.
Substrate in data set [11]: C[C@]12CC[C@@H]3c4ccc(OS(=O)(=O)O)cc4CC[C@H]3[C@@H]1CCC2=O
The data set can be described thus: TP_TRANSPORTER: uptake in OATP-B-expressing HEK293 cells.

Substrate in data set [12]: C[C@]12CC[C@@H]3c4ccc(O)cc4CC[C@H]3[C@@H]1CC[C@@H]2O[C@@H]1O[C@H](C(=O)O)[C@@H](O)[C@H](O)[C@H]1O
The data set can be described thus: TP_TRANSPORTER: uptake in OATP-C-expressing HEK293 cells.

Structures can show the parent of a compound that is named as a salt.

`C[C@]12CC[C@@H]3c4ccc(O[C@@H]5O[C@H](C(=O)O)[C@@H](O)[C@H](O)[C@H]5O)cc4CC[C@H]3[C@@H]1CCC2=O`: the Activity entry in data set [1] is “inhibitor [(at a rough estimate) 40 % of control]”.

For `C[C@]12CC[C@@H]3c4ccc(OS(=O)(=O)O)cc4CC[C@H]3[C@@H]1CC[C@@H]2O`, the results for the Activity result in data set [2] and in data set [3] were “inhibitor [(at a rough estimate) 10 % of control]” and “inhibitor [(at a rough estimate) 30 % of control]”, respectively.

A word on the Ki: it is the dissociation constant of the complex between target and ligand, obtained from inhibition or displacement. A high value points to a looser hold on the target. Turning to `C[C@]12CC[C@@H]3c4ccc(O)cc4CC[C@H]3[C@@H]1CC[C@@H]2O[C@@H]1O[C@H](C(=O)O)[C@@H](O)[C@H](O)[C@H]1O` [ESTRADIOL 17B GLUCURONIDE], the Activity result in data set [4] is “inhibitor [(at a rough estimate) <1 % of control]”. The molecule also had a Ki in data set [5] of 4.43 µM.

Turning to `C[C@]12CC[C@@H]3c4ccc(OS(=O)(=O)O)cc4CC[C@H]3[C@@H]1CC[C@@H]2O[C@@H]1O[C@H](C(=O)O)[C@@H](O)[C@H](O)[C@H]1O` [ESTRADIOL GLUCURONIDE SULFATE], the Activity entry in [6] was “inhibitor [(at a rough estimate) 40 % of control]”.

On to `C[C@]12CC[C@@H]3c4ccc(O)cc4CC[C@H]3[C@@H]1CC[C@@H]2O` [ESTRADIOL], for which the Activity result in data set [7] is “inhibitor [(at a rough estimate) 60 % of control]”; in data set [8] it was “inhibitor [(at a rough estimate) 35 % of control]”.

Turning to `C[C@]12CC[C@@H]3c4ccc(OS(=O)(=O)O)cc4CC[C@H]3[C@@H]1CCC2=O` [ESTRONE SULFURIC ACID], the affinity in data set [5], expressed as Ki, was 0.0458 µM.

As to `C[C@]12CC[C@@H]3c4ccc(O)cc4CC[C@H]3[C@@H]1CCC2=O` [ESTRONE], the Activity entry is “inhibitor [(at a rough estimate) 40 % of control]” in data set [9] and “inhibitor [(at a rough estimate) 45 % of control]” in [10].

B1: Solute carrier organic anion transporter family member 2B1 (Homo sapiens) (protein)
chain: T2 sequence (O94956 whole entry)
What is called Km is the concentration of substrate that gives half-maximal velocity. With B1, the Km in data set [11] was 12.5 µM.

B2: Solute carrier organic anion transporter family member 1B1 (Homo sapiens) (protein)
chain: T1 sequence (Q9Y6L6 whole entry)
With B2, the Km in [12] came to 3.71 µM.
